Experimental data: patent publication US8513423B2 (Janssen Pharmaceutica, NV, priority 2010, dated 2013)
Where a chain is given by its changes, count along the chain named. Read-outs that look alike come from different tables or passages of the source.

Tests used:
[1] = target: T1, purified wild type MGL (wt-MGLL 6H-11-313) (Homo sapiens, UniProt Q99685); experiment: MGL enzyme activity assay (4MU-B cleavage), wild type MGL; format: biochemical; settings: 10 μM 4MU-B, 5 nM enzyme, 37° C., read-out: MGL wild type inh IC50
T1 construct: purified wild type MGL (wt-MGLL 6H-11-313)
T1 sequence (Q99685 1-303): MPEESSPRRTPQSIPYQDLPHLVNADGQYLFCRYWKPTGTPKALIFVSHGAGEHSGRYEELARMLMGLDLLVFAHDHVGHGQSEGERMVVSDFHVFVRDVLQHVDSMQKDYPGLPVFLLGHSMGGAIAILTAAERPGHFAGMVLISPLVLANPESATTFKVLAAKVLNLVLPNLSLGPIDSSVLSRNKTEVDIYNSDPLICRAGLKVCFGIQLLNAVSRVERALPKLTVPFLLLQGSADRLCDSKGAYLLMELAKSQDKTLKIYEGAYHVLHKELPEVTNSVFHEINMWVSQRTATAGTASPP
How it was run: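 Enzyme (5 nM final) cleaved 4MU-B (10 μM final) in 20 mM PIPES pH 7.0 with 150 mM NaCl and 0.001% Tween 20. Compounds were tested at 17 to 0.0003 μM final. Fluorescence (ex 335/em 440 nm) was monitored at 37° C for 5 min, and IC50 was fitted from fractional activity versus inhibitor concentration.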

MGL = target: T2, MGL (Rattus norvegicus, UniProt Q8R431); experiment: 2-AG accumulation assay in rat brain homogenate; format: biochemical; settings: compound @1 μM; for 2-AG accumulation, percent of vehicle control at 1 µM: read-out: Rat Brain 2AG % VehCntrl (%) @1 μM
T2 construct: one g rat brain was homogenized; from tissue; host or cells: rat brain homogenate
T2 sequence (Q8R431 1-303): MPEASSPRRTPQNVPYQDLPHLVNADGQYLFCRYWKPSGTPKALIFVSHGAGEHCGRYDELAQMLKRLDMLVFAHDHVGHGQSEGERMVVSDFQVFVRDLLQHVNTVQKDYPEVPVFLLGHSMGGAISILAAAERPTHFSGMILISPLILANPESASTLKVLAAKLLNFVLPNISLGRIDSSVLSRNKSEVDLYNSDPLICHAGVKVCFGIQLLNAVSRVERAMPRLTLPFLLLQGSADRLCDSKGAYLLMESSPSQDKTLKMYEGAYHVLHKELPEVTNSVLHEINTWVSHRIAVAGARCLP
Method: After a 15-min incubation time at 37° C., CaCl2 (final concentration=10 mM) was added and then incubated for 15 min at 37° C. in a total volume of 5 mL. The reactions were stopped with 6 mL organic solvent extraction solution of 2:1 chloroform/methanol. Accumulated 2-AG in the organic phase was measured by a HPLC/MS method, according to the following equation: percent vehicle=(2-AG accumulation in the presence of compound/2-AG accumulation in vehicle)×100.

mutant MGL = target: T3, mutant MGL (Homo sapiens, UniProt Q99685, L169S/L176S); experiment: MGL ThermoFluor assay - mutant; format: binding
T3 construct: purified mutant MGL (mut-MGLL 11-313 L179S L186S)
T3 sequence (Q99685 1-303 L169S/L176S): T1 sequence (Q99685 1-303) with L169S, L176S
How it was run: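 Thermal shift binding with 0.07 mg/ml L169S/L176S MGL, 100 μM 1,8-ANS, 200 mM NaCl, 0.001% Tween-20, 50 mM PIPES pH 7.0. Heated 40–90 °C at 1 °C/min, fluorescence (em 500 nm) tracked to give Tm; Kd fitted from 11-point concentration–Tm response, qKd when stocks quantified by qNMR.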

[2] = 0.07 mg/ml mutant MGL, pH=7.0, read-out: MGL mutant ThermoFluor Kd
[3] = compound concentration measured by qNMR, read-out: MGL mutant ThermoFluor qKd (using qNMR conc.)

Molecule | IC50 [1] [µM] | 2-AG accumulation, percent of vehicle control at 1 µM (MGL) [%] | Kd (mutant MGL; [2]) [µM] | Kd (mutant MGL; [3]) [µM] | Rat Brain 2AG % VehCntrl (%) @1 μM (MGL; percent vehicle) [%]
Cc1c(C(=O)N2CCC(C3CN(C(=O)c4nccs4)C3)CC2)sc2cc(C(F)(F)F)ccc12 [Cpd 60, 1-{[3-Methyl-6-(trifluoromethyl)-1-benzothiophen-2-yl]carbonyl}-4-[1-(1,3-thiazol-2-ylcarbonyl)azetidin-3-yl]piperidine] | 0.01 | 508 | 0.0008 | 0.0005 | –
O=C(c1nccs1)N1CCC(C2CN(C(=O)c3sc4cc(F)ccc4c3Cl)C2)CC1 [Cpd 8, 4-{1-[(3-Chloro-6-fluoro-1-benzothiophen-2-yl)carbonyl]azetidin-3-yl}-1-(1,3-thiazol-2-ylcarbonyl)piperidine] | 0.007 | 523 | 0.004 | – | –
1-(1H-Pyrrol-2-ylcarbonyl)-4-[1-({4-3-(trifluoromethyl)benzyl]phenyl}carbonyl)azetidin-3-yl]piperidine [Cpd 25] | 0.012 | – | 0.0275 | – | 540
O=C(c1ccc(Cc2ccc(C(F)(F)F)cc2)cc1)N1CCC(C2CN(C(=O)c3cscn3)C2)CC1 [Cpd 64, 4-[1-(1,3-Thiazol-4-ylcarbonyl)azetidin-3-yl]-1-({4-[4-(trifluoromethyl)benzyl]phenyl}carbonyl)piperidine] | < 0.005 | 383 | – | 0.0189 | –
O=C(c1cscn1)N1CCC(C2CN(C(=O)c3sc4cc(F)ccc4c3Cl)C2)CC1 [Cpd 7, 4-{1-[(3-Chloro-6-fluoro-1-benzothiophen-2-yl)carbonyl]azetidin-3-yl}-1-(1,3-thiazol-4-ylcarbonyl)piperidine] | 0.0565 | 185 | 0.025 | – | –
O=C(c1ccc(Cc2cccc(C(F)(F)F)c2)cc1)N1CCC(C2CN(C(=O)c3cscn3)C2)CC1 [Cpd 58, 4-[1-(1,3-Thiazol-4-ylcarbonyl)azetidin-3-yl]-1-({4-[3-(trifluoromethyl)benzyl]phenyl}carbonyl)piperidine] | < 0.005 | 370 | – | 0.0069 | –
O=C(c1ccc2c(ccn2-c2ccc(F)cc2)c1)N1CCC(C2CN(C(=O)c3ccc[nH]3)C2)CC1 [Cpd 74, 1-(4-Fluorophenyl)-5-({4-[1-(1H-pyrrol-2-ylcarbonyl)azetidin-3-yl]piperidin-1-yl}carbonyl)-1H-indole] | 0.0138 | 788 | – | 0.008 | –
O=C(c1ccc2c(ccn2-c2ccc(F)cc2)c1)N1CC(C2CCN(C(=O)c3cscn3)CC2)C1 [Cpd 36, 1-(4-Fluorophenyl)-5-({3-[1-(1,3-thiazol-4-ylcarbonyl)piperidin-4-yl]azetidin-1-yl}carbonyl)-1H-indole] | < 0.005 | 507 | 0.0225 | – | –
O=C(c1ccc2c(ccn2-c2ccc(C(F)(F)F)cc2)c1)N1CC(C2CCN(C(=O)c3nccs3)CC2)C1 [Cpd 31, 5-({3-[1-(1,3-Thiazol-2-ylcarbonyl)piperidin-4-yl]azetidin-1-yl}carbonyl)-1-[4-(trifluoromethyl)phenyl]-1H-indole] | < 0.005 | 779 | 0.0026 | – | –
Cc1c(C(=O)N2CC(C3CCN(C(=O)c4cscn4)CC3)C2)sc2cc(C(F)(F)F)ccc12 [Cpd 14, 4-(1-{[3-Methyl-6-(trifluoromethyl)-1-benzothiophen-2-yl]carbonyl}azetidin-3-yl)-1-(1,3-thiazol-4-ylcarbonyl)piperidine] | 0.005 | 231 | 0.005 | – | –
O=C(c1cccc(-c2cccc(F)c2)c1)N1CCC(C2CN(C(=O)c3ccc[nH]3)C2)CC1 [Cpd 53, 1-[(3′-Fluorobiphenyl-3-yl)carbonyl]-4-[1-(1H-pyrrol-2-ylcarbonyl)azetidin-3-yl]piperidine] | 0.0466 | 225 | – | 0.0333 | –
O=C(c1ccc(Cc2cccc(C(F)(F)F)c2)cc1)N1CCC(C2CN(C(=O)c3ccc[nH]3)C2)CC1 [Cpd 59, 4-[1-(1H-Pyrrol-2-ylcarbonyl)azetidin-3-yl]-1-({4-[3-(trifluoromethyl)benzyl]phenyl}carbonyl)piperidine] | 0.011 | 346 | 0.0202 | 0.0094 | –
O=C(c1ccc2c(ccn2-c2ccc(F)c(F)c2)c1)N1CC(C2CCN(C(=O)c3cscn3)CC2)C1 [Cpd 38] | 0.005 | 425 | 0.0155 | – | –
O=C(c1ccc(-c2cccc(C(F)(F)F)c2)cc1)N1CC(C2CCN(C(=O)c3ccc[nH]3)CC2)C1 [Cpd 22, 1-(1H-Pyrrol-2-ylcarbonyl)-4-(1-{[3′-(trifluoromethyl)biphenyl-4-yl]carbonyl}azetidin-3-yl)piperidine] | 0.008 | 470 | 0.0066 | – | –
O=C(c1ccc2nc(-c3ccccc3)oc2c1)N1CC(C2CCN(C(=O)c3nccs3)CC2)C1 [Cpd 28, 2-Phenyl-6-({3-[1-(1,3-thiazol-2-ylcarbonyl)piperidin-4-yl]azetidin-1-yl}carbonyl)-1,3-benzoxazole] | 0.0164 | 777 | 0.0111 | – | –
O=C(c1ccc(-c2ccc(C(F)(F)F)s2)cc1)N1CCC(C2CN(C(=O)c3nccs3)C2)CC1 [Cpd 54, 4-[1-(1,3-Thiazol-2-ylcarbonyl)azetidin-3-yl]-1-({4-[5-(trifluoromethyl)thiophen-2-yl]phenyl}carbonyl)piperidine] | < 0.005 | 736 | – | 0.0018 | –
O=C(c1ccc[nH]1)N1CC(C2CCN(C(=O)c3ccc(-c4ccccc4)cc3F)CC2)C1 [Cpd 47, 1-[(3-Fluorobiphenyl-4-yl)carbonyl]-4-[1-(1H-pyrrol-2-ylcarbonyl)azetidin-3-yl]piperidine] | 0.0379 | 153 | 0.0767 | 0.0333 | –
O=C(c1ccc(-c2ccc(C(F)(F)F)s2)cc1)N1CC(C2CCN(C(=O)c3nccs3)CC2)C1 [Cpd 18, 1-(1,3-Thiazol-2-ylcarbonyl)-4-[1-({4-[5-(trifluoromethyl)thiophen-2-yl]phenyl}carbonyl)azetidin-3-yl]piperidine] | 0.0125 | 457 | 0.003 | – | –
O=C(c1ccc2nc(-c3ccccc3)oc2c1)N1CCC(C2CN(C(=O)c3cscn3)C2)CC1 [Cpd 67, 2-Phenyl-6-({4-[1-(1,3-thiazol-4-ylcarbonyl)azetidin-3-yl]piperidin-1-yl}carbonyl)-1,3-benzoxazole] | 0.0665 | 590 | – | 0.0066 | –
Cc1c(C(=O)N2CC(C3CCN(C(=O)c4ccc[nH]4)CC3)C2)sc2cc(C(F)(F)F)ccc12 [Cpd 26, 4-(1-{[3-Methyl-6-(trifluoromethyl)-1-benzothiophen-2-yl]carbonyl}azetidin-3-yl)-1-(1H-pyrrol-2-ylcarbonyl)piperidine] | < 0.005 | 303 | 0.0036 | – | –
O=C(c1ccc(-c2ccccc2)cc1)N1CC(C2CCN(C(=O)c3ccns3)CC2)C1 [Cpd 3, 4-[1-(Biphenyl-4-ylcarbonyl)azetidin-3-yl]-1-(isothiazol-5-ylcarbonyl)piperidine] | 0.0339 | 135 | 0.0557 | – | –
